From patent US20050004111A1, “Selective MMP-13 inhibitors” (AVENTIS PHARMA DEUTSCHLAND GMBH, priority 2003, published 2005)

Tests used:
prolyl 4-hydroxylase = molecular target: T1, prolyl 4-hydroxylase (Gallus gallus, UniProt P16924); test: Prolyl hydroxylase inhibition (method of Majamaa, version of Kaule and Guenzler); assay type: biochemical; settings: enzyme from 14-day-old chick embryos; concentrations of from 0.1 μM to 1 mM
T1 construct: from tissue; host or cells: 14-day-old chick embryos (homogenate)
T1 sequence (P16924 1-516): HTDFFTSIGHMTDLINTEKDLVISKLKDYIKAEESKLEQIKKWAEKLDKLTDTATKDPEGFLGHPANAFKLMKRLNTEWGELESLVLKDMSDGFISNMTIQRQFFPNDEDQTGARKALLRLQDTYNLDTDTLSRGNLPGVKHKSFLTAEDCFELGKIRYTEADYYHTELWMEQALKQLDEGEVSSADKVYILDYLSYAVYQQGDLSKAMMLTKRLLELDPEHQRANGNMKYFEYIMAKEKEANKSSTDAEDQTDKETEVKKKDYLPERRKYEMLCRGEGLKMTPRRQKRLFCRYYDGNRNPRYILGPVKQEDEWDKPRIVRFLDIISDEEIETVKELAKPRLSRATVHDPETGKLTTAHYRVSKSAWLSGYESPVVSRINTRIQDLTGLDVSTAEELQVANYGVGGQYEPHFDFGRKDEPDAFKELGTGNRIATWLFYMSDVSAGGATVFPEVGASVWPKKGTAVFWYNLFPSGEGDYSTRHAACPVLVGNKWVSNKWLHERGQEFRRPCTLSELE
T1 sequence (P09102 23-515 partner): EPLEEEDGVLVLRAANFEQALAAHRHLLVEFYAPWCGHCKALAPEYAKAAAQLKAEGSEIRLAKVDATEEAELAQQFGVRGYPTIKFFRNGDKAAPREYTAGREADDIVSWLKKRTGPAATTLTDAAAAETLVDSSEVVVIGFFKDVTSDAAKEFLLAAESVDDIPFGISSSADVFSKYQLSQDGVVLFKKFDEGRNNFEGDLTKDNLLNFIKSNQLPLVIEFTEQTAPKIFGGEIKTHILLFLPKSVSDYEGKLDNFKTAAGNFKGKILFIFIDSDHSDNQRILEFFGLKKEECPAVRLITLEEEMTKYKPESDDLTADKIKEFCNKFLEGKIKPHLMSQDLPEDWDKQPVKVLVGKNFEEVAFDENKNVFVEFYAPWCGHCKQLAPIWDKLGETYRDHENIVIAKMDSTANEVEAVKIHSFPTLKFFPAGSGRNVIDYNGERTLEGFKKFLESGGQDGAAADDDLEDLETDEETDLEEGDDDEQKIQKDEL
Description: Determining prolyl hydroxylase inhibition by the method of Majamaa Eur. J. Biochem. 138 (1984) 239-245 using the version of Kaule and guenzler Analytical Biochemistry 184 (1990) 291-297.
0.03 μg of prolyl 4-hydroxylase, which was prepared, by the method of Kedersa, Collagen Relat. Res. 1 (1981) 345-353, from homogenized 14-day-old chick embryos by ammonium sulfate precipitation and affinity chromatography on poly-L-proline-coupled Sepharose 4B and subsequent DEAE cellulose chromatography, was incubated, at 37° C. for one hour, in 0.05 ml of an 0.04 M tris-HCl solution (pH=7.5) containing 0.05 mM FeSO4, 0.1 mM 2-oxo-[5-C-14]glutarate (100,000 dpm), 20 μg (0.4 mg/ml) of (Pro-Pro-Gly)10 (Protein Research Foundation, Minoh, Osaka, Japan), 1 mM ascorbic acid, 0.4 mg of catalase/ml, 0.5 mM dithiothreitol and 2 mg of bovine serum albumin/ml, as well as the concentration of the inhibitor to be measured (the comparison experiment was carried out without any inhibitor). After that, 25 μl of a 20 mM succinate and 2-oxaglutarate solution, and also 25 μl of a 0.16 M 2,4-DNPH solution containing 30% HClO4, were added. After the mixture had been incubated at room temperature for a further 30 minutes, it was centrifuged at 3000 g for 5 minutes. The radioactivity of 100 μl of the supernatant was determined by liquid scintillation. Production of the [1-C-14] succinate was given in dpm. Unless otherwise indicated, all the chemicals and reagents were obtained from Sigma, Sigma D-82024 Taufkirchen.
The compounds tested in Table 3 were used at concentrations of from 0.1 μM to 1 mM. Where it was possible, the IC50 value was determined by graphic extrapolarization of the individual results. This value denotes the concentration of active inhibitors that led to 50% inhibition of the enzyme.

[1] = molecular target: T2, catalytic domain of human collagenase 3 (MMP-13) (Homo sapiens, UniProt P45452); test: Enzyme activity of the catalytic domain of human collagenase 3 (MMP-13), fluorogenic substrate; assay type: biochemical; settings: determined graphically from % inhibition, read-out: IC50 MMP13
T2 construct: Determining the enzyme activity of the catalytic domain of human collagenase 3 (MMP-13); purchased INVITEK, Berlin 30 100 803
Description: Determining the enzyme activity of the catalytic domain of human collagenase 3 (MMP-13).
Activating the proenzyme:
2 parts by volume of proenzyme are incubated with 1 part by volume of APMA solution at 37° C. for 1.5 hours. The APMA solution is prepared from a 10 mmol/l solution of p-aminophenylmercuric acetate in […] by diluting with 3 parts by volume of tris/HCl buffer, pH 7.5 (see below). The pH is adjusted to between 7.0 and 7.5 by adding 1 mmol/I HCl. After the enzyme has been activated, it is diluted to a concentration of 1.67 μg/ml using the tris/HCl buffer.
In order to measure the enzyme activity, 10 μl of enzyme solution are incubated for 15 minutes with 10 μl of a 3% (v/v) buffered solution of dimethyl sulfoxide (reaction 1). In order to measure the enzyme inhibitor activity, 10 μl of enzyme solution are incubated with 10 μl of a 3% (v/v) buffered solution of dimethyl sulfoxide containing the enzyme inhibitor (reaction 2).
In the case of both reaction 1 and reaction 2, the enzyme reaction is monitored by fluorescence spectroscopy (328 nm (extinction)/393 nm (emission)) after adding 10 μl of a 3% (v/v) aqueous solution of dimethyl sulfoxide containing 0.75 mmol of the substrate/l.
The enzyme activity is depicted as increase in extinction/minute.
The effect of the inhibitor is calculated as a percentage inhibition using the following formula: % inhibition=100−[(increase in extinction/minute in reaction 2)/(increase in extinction/minute in reaction 1)×100].
The IC50, i.e., the inhibitor concentration that is required for inhibiting the enzyme activity by 50%, is determined graphically by plotting the percentage inhibitions at different inhibitor concentrations.
The buffer solution contains 0.05% Brij (Sigma, Deisenhofen, Germany) and 0.1 mol of tris/HCl/l, 0.1 mol of NaCl/l and 0.01 mol of CaCl2/l (pH=7.5). The enzyme solution contains 1.67 μg of the enzyme domain/ml. The substrate solution contains 0.75 mmol/l of the fluorogenic substrate (7-methoxycoumarin4-yl)acetyl-Pro-Leu-Gly-Leu-3-(2′,4′-dinitrophenyl)-L-2,3-diaminopropionyl-Ala-Arg-NH2 (Bachem, Heidelberg, Germany).

With `O=C(NCc1ccncc1)c1cc(C(=O)NCc2ccc(F)c(Cl)c2)ncn1` [Example 14] as the compound, how does the “Prolyl hydroxylase IC50” value (prolyl 4-hydroxylase) read?
Its value is “No inhibition”.

With `COc1cc(CNC(=O)c2cc(C(=O)NCc3ccc(F)c(Cl)c3)ncn2)ccn1` [Example 20] as the compound, how does the IC50 [1] read?
Its IC50 is 50 nM.

How did the IC50 [1] turn out when `Cc1cc(CNC(=O)c2cc(C(=O)NCc3ccc(OCC(=O)OC(C)(C)C)cc3)ncn2)ccc1F` [Example 1, tert-Butyl [4-({[6-(4-fluoro-3-methylbenzylcarbamoyl)pyrimidine-4-carbonyl]amino}methyl)phenoxy]acetate] was run?
Its IC50 is 12 nM.

Which “Prolyl hydroxylase IC50” value (prolyl 4-hydroxylase) does the source give for `O=C(NCc1ccc(OCCN2CCOCC2)cc1)c1cc(C(=O)NCc2ccc(F)c(Cl)c2)ncn1` [Example 72] here?
The value was “No inhibition”.

For `COc1cccc(CNC(=O)c2cc(C(=O)NCc3ccc(C)s3)ncn2)c1` [Example 4], which IC50 [1] is on record?
Its IC50 is 24 nM.

How did the IC50 [1] turn out when `COc1cccc(CNC(=O)c2cc(C(=O)NCc3nccs3)ncn2)c1` [Example 44] was run?
The IC50 was 500 nM.

For `Cc1cc(CNC(=O)c2cc(C(=O)NCc3cccs3)ncn2)ccc1F` [Example 7], which “Prolyl hydroxylase IC50” value (prolyl 4-hydroxylase) is on record?
Its value is “No inhibition”.

`COc1cc(CNC(=O)c2cc(C(=O)NCc3ccc(F)c(Br)c3)ncn2)ccn1` [Example 11] was tested. Which IC50 [1] did it give?
Its IC50 is 30 nM.

`COc1cccc(CNC(=O)c2cc(C(=O)NCc3cccc(OCCN(C)C)c3)ncn2)c1` [Example 69] was tested. Which “Prolyl hydroxylase IC50” value (prolyl 4-hydroxylase) did it give?
The value was “No inhibition”.

`Cc1cc(CNC(=O)c2cc(C(=O)NCc3sccc3C)ncn2)ccc1F` [Example 35] was tested. Which IC50 [1] did it give?
The IC50 was 200 nM.

Which “Prolyl hydroxylase IC50” value (prolyl 4-hydroxylase) does the source give for `O=C(NCc1ccc(F)c(Cl)c1)c1cc(C(=O)NCc2cccs2)ncn1` [Example 83] here?
The value was “No inhibition”.

Which IC50 (prolyl 4-hydroxylase) does the source give for `O=C(O)c1cc(C(=O)O)ncn1` [Pyrimidine-4,6-dicarboxylic acid, reference compound] here?
Its IC50 is 1200 nM.

How did the “Prolyl hydroxylase IC50” value (prolyl 4-hydroxylase) turn out when `COc1cccc(CNC(=O)c2cc(C(=O)NCc3ccc(OCCCN(C)C)cc3)ncn2)c1` [Example 71] was run?
Its value is “No inhibition”.

With `COc1cccc(CNC(=O)c2cc(C(=O)NCc3ccc(OCCN(C)C)cc3)ncn2)c1` [Example 70] as the compound, how does the “Prolyl hydroxylase IC50” value (prolyl 4-hydroxylase) read?
The value was “No inhibition”.

Which IC50 [1] does the source give for `Cc1cc(CNC(=O)c2cc(C(=O)NCc3ccc(OCC(=O)O)cc3)ncn2)ccc1F` [Example 2, [4-({[6-(4-Fluoro-3-methylbenzylcarbamoyl)pyrimidine-4-carbonyl]-amino}methyl)phenoxy]acetic acid] here?
The IC50 was 7 nM.

How did the “Prolyl hydroxylase IC50” value (prolyl 4-hydroxylase) turn out when `Cc1ccc(CNC(=O)c2cc(C(=O)NCc3ccc(F)c(C)c3)ncn2)o1` [Example 84] was run?
The value was “No inhibition”.

`COc1cccc(CNC(=O)c2cc(C(=O)NCc3ccncc3)ncn2)c1` [Example 22] was tested. Which “Prolyl hydroxylase IC50” value (prolyl 4-hydroxylase) did it give?
The value was “No inhibition”.

How did the IC50 [1] turn out when `O=C(NCCc1cccs1)c1cc(C(=O)NCc2ccc(F)c(Cl)c2)ncn1` [Example 28] was run?
Its IC50 is 100 nM.
